Assay results published in US12630571B2, “Crystal form of L-glufosinate and preparation method and use thereof” (JIANGSU SEVENCONTINENT GREEN TECHNOLOGY RESEARCH INSTITUTE …, priority 2022, dated 2026).

How the values were obtained:
Stability test (storage) = format: physicochemical; settings: for Appearance (change after storage) / Crystal form (change after storage) / Weight change (%): humidity 65%; for stability (in words): compared with the crystal forms in CN111065270A
Experimental: Experimental method: The crystal forms A, B, and C were stored at a temperature of 60° C. for 7 days, the crystal form changes were re-measured, and the specific results were shown in Table 9.
The crystals obtained in Embodiments 4-9 were stored for 48 days at 25° C. and 60° C., respectively, the crystal form changes were re-measured, and the specific results were shown in Table 10.

[1] = DSC heat absorption and decomposition temperatures (high temperature stability); format: physicochemical; settings: for Peak: DSC endothermic peak temperature; for Start of heat absorption: DSC
Experimental: (§1) In the present application, the test instruments and conditions used in the experiment are as follows: • 1. The crystal form of the product was analyzed by X-ray powder diffractometer (XRD, Rigaku D/Max-2500 type, Cu Kα radiation, λKα=0.15406 nm), the emission voltage and current were 40 kV and 100 mA, respectively, and the scanning range was 2-40°, the scan step size was 0.02°, and the scan rate was 8°/min. • 2. Differential Scanning calorimetry (DSC) and Thermogravimetric Analysis (TGA): DSC and TGA analyses were performed using a TGA/DSC Model 1 instrument from Mettler Toledo. The DSC measurement method was as follows: take 5-10 mg of the sample into an aluminum crucible, put it into the instrument, set the nitrogen flow rate to 50 ml/min, 200 ml/min, and increase the temperature from 30° C. to 200° C. at a rate of 10° C./min, and analysis was performed using STAR software from Mettler Toledo. The TGA measurement method was as follows: take 5-10 mg of the sample into an aluminum crucible, put it into the instrument, set the nitrogen flow rate to 20 ml/min, 50 ml/min, and increase the temperature from 30° C. to 200° C. at a rate of 10° C./min, and analysis was performed using STAR software from Mettler Toledo.
For the crystal form A, crystal form B, crystal form D and crystal form E of L-glufosinate ammonium, the data comparison of its high temperature stability were shown in Table 6.

Alopecurus aequalis = experiment: Field efficacy experiment, plant control effect; format: in vivo; settings: 10% aqueous solution, 120 mL/mu, 7 days after treatment
Experimental: (§2) The combination of preparation processing and field efficacy test was adopted below.
(§3) The above-mentioned formulations were prepared with the crystals of the embodiments of the present disclosure and the crystal form A in the patent CN111065270A respectively for field efficacy experiments. It was detected that the physical and chemical properties of the aqueous solution products prepared by each crystal form were stable and met the needs of production and use, and at the same time, field experiments were carried out on different weeds. The dosage was 120 mL/mu.
(§4) Referring to the “Pesticide-Guidelines for the field efficacy trials”, 5 sites were investigated in each plot, each site was 1 square meter, and the types of weeds, the total number of plants, the symptoms of poisoning, the number of dead plants, etc. were recorded for each treatment 7 days after the treatment, and then the results of the plant control effect were counted, and the weed mortality was calculated and counted specifically.

Bluegrass = experiment: Field efficacy experiment, plant control effect; format: in vivo; settings: 10% aqueous solution, 120 mL/mu, 7 days after treatment
Experimental: as §2, §3, §4

Euphorbia helioscopia = experiment: Field efficacy experiment, plant control effect; format: in vivo; settings: 10% aqueous solution, 120 mL/mu, 7 days after treatment
Experimental: as §2, §3, §4

Hygroscopicity test = format: physicochemical; settings: 48 h; for Weight change (%): 100 g solid
Experimental: Experimental scheme: 100 g of solids were placed under different humidity for 48 h, and re-measured whether there was a significant change in their quality, and visually inspected whether there was a significant change in their appearance, so as to determine whether the crystal form had hygroscopicity, and the specific results of the crystal forms A, B, and C were shown in Table 7, and the specific results of the crystal forms D and E were shown in Table 8.

Rumex = experiment: Field efficacy experiment, plant control effect; format: in vivo; settings: 10% aqueous solution, 120 mL/mu, 7 days after treatment
Experimental: as §2, §3, §4

[2] = system: weeds such as Rumex, Alopecurus aequalis, Euphorbia helioscopia, and bluegrass; experiment: Field efficacy experiment, summary statements over all weeds; format: in vivo; settings: difference in plant control effect
Experimental: as §2, §3, §4

[3] = Thermogravimetric analysis (TGA); format: physicochemical
Experimental: as §1

[4] = listed as Crystal form A of L-glufosinate ammonium
[5] = listed as Crystal form A of Embodiment 1 of the present disclosure
[6] = listed as Crystal form B of L-glufosinate ammonium
[7] = listed as Crystal form B of Embodiment 2 of the present disclosure
[8] = listed as Crystal form D of L-glufosinate ammonium
[9] = listed as Crystal form D of Embodiment 4 of the present disclosure
[10] = listed as Crystal form D of L-Glufosinate Ammonium
[11] = listed as Crystal form E of L-glufosinate ammonium
[12] = listed as Crystal form E of Embodiment 5 of the present disclosure
[13] = listed as Crystal form E of L-Glufosinate Ammonium

SMILES: CP(=O)(O)CC[C@H](N)C(=O)O.N [Crystal form A, L-glufosinate ammonium]
- Appearance (change after storage) (Stability test (storage); 60° C., 7 days): Unchanged
- Crystal form (change after storage) (Stability test (storage); 60° C., 7 days): Unchanged
- stability (in words) (Stability test (storage)): excellent stability
- Peak [1, 4]: 129° ° C.
- Start of heat absorption [1, 4]: 110° ° C.
- high temperature stability (in words) ([1]; versus the ammonium salt crystal forms in the existing patent): better high temperature stability
- Plant control effect (%) Alopecurus aequalis (Alopecurus aequalis; [5]): 80%
- Plant control effect (%) Bluegrass (Bluegrass; [5]): 80%
- Plant control effect (%) Euphorbia helioscopia (Euphorbia helioscopia; [5]): 80%
- Weight change (%) (Hygroscopicity test; 20° C., humidity 65%, listed as A): +0.02%
- Weight change (%) (Hygroscopicity test; 20° C., humidity 80%, listed as A): +1.45%

SMILES: CP(=O)(O)CC[C@H](N)C(=O)O.N [Crystal form B, L-glufosinate ammonium]
- Peak [1, 6]: 134° ° C.
- Start of heat absorption [1, 6]: 125° ° C.
- Plant control effect (%) Alopecurus aequalis (Alopecurus aequalis; [7]): 85%
- Plant control effect (%) Rumex (Rumex): 100%
- Plant control effect (%) Bluegrass (Bluegrass; [7]): 80%
- Plant control effect (%) Euphorbia helioscopia (Euphorbia helioscopia; [7]): 80%
- Weight change (%) (Hygroscopicity test; 20° C., humidity 65%, listed as B): +0.03%
- Weight change (%) (Hygroscopicity test; 20° C., humidity 80%, listed as B): +1.55%

SMILES: CP(=O)(O)CC[C@H](N)C(=O)O [Crystal form C, L-glufosinate]
- Appearance (change after storage) (Stability test (storage); 60° C., 7 days): Unchanged
- Crystal form (change after storage) (Stability test (storage); 60° C., 7 days): Unchanged
- stability (in words) (Stability test (storage)): excellent stability
- Weight change (%) (Hygroscopicity test; 20° C., humidity 65%): +0.02%
- Weight change (%) (Hygroscopicity test; 20° C., humidity 80%): +1.54%

SMILES: CP(=O)(O)CC[C@H](N)C(=O)O.N [Crystal form D, L-glufosinate ammonium]
- Weight change (%) (Stability test (storage); 25° C., 48 days, listed as Embodiment 4): +0.03%
- Weight change (%) (Stability test (storage); 25° C., 48 days, listed as Embodiment 6): +0.03%
- Weight change (%) (Stability test (storage); 25° C., 48 days, listed as Embodiment 7): +0.01%
- Appearance (change after storage) (Stability test (storage); 60° C., 48 days): Unchanged
- Crystal form (change after storage) (Stability test (storage); 60° C., 48 days): Unchanged
- Weight change (%) (Stability test (storage); 60° C., 48 days, listed as Embodiment 4): +0.02%
- Weight change (%) (Stability test (storage); 60° C., 48 days, listed as Embodiment 6): +0.02%
- Weight change (%) (Stability test (storage); 60° C., 48 days, listed as Embodiment 7): +0.01%
- storage stability (in words) (Stability test (storage); at 25° C. and 60° C.): excellent storage stability
- efficacy higher than other crystal forms of the ammonium salt [2]: about 5%
- Peak [1, 8]: 179.83° ° C.
- Start of heat absorption [1, 8]: 161.84° ° C.
- Plant control effect (%) Alopecurus aequalis (Alopecurus aequalis; [9]): 86%
- Plant control effect (%) Bluegrass (Bluegrass; [9]): 85%
- Plant control effect (%) Euphorbia helioscopia (Euphorbia helioscopia; [9]): 85%
- Appearance change (Hygroscopicity test; 25° C., humidity 65%): Unchanged
- Weight change (%) (Hygroscopicity test; 25° C., humidity 65%, listed as Embodiment 4): +0.03%
- Weight change (%) (Hygroscopicity test; 25° C., humidity 65%, listed as Embodiment 6): +0.03%
- Weight change (%) (Hygroscopicity test; 25° C., humidity 65%, listed as Embodiment 7): +0.01%
- Appearance change (Hygroscopicity test; 25° C., humidity 80%): Unchanged
- Weight change (%) (Hygroscopicity test; 25° C., humidity 80%, listed as Embodiment 4): +1.12%
- Weight change (%) (Hygroscopicity test; 25° C., humidity 80%, listed as Embodiment 6): +1.17%
- Weight change (%) (Hygroscopicity test; 25° C., humidity 80%, listed as Embodiment 7): +1.12%
- temperature below which the weight of the crystal was basically unchanged [3, 10]: 139.5 °C
- temperature from which weight decreased rapidly (decomposition) [3, 10]: 206.5 °C
- temperature from which weight started to decrease slowly (release of ammonia gas) [3, 10]: 139.5 °C

SMILES: CP(=O)(O)CC[C@H](N)C(=O)O.N [Crystal form E, L-glufosinate ammonium]
- Appearance (change after storage) (Stability test (storage); 25° C., 48 days): Unchanged
- Crystal form (change after storage) (Stability test (storage); 25° C., 48 days): Unchanged
- Weight change (%) (Stability test (storage); 25° C., 48 days, listed as Embodiment 5): +0.02%
- Weight change (%) (Stability test (storage); 25° C., 48 days, listed as Embodiment 8): +0.02%
- Weight change (%) (Stability test (storage); 25° C., 48 days, listed as Embodiment 9): +0.02%
- Weight change (%) (Stability test (storage); 60° C., 48 days, listed as Embodiment 5): +0.01%
- Weight change (%) (Stability test (storage); 60° C., 48 days, listed as Embodiment 8): +0.02%
- Weight change (%) (Stability test (storage); 60° C., 48 days, listed as Embodiment 9): +0.02%
- Peak [1, 11]: 185.833° ° C.
- Start of heat absorption [1, 11]: 147° ° C.
- Plant control effect (%) Alopecurus aequalis (Alopecurus aequalis; [12]): 85%
- Plant control effect (%) Bluegrass (Bluegrass; [12]): 85%
- Plant control effect (%) Euphorbia helioscopia (Euphorbia helioscopia; [12]): 90%
- Weight change (%) (Hygroscopicity test; 25° C., humidity 65%, listed as Embodiment 5): +0.02%
- Weight change (%) (Hygroscopicity test; 25° C., humidity 65%, listed as Embodiment 8): +0.02%
- Weight change (%) (Hygroscopicity test; 25° C., humidity 65%, listed as Embodiment 9): +0.02%
- Weight change (%) (Hygroscopicity test; 25° C., humidity 80%, listed as Embodiment 5): +1.23%
- Weight change (%) (Hygroscopicity test; 25° C., humidity 80%, listed as Embodiment 8): +1.15%
- Weight change (%) (Hygroscopicity test; 25° C., humidity 80%, listed as Embodiment 9): +1.18%
- temperature below which the weight of the crystal was basically unchanged [3, 13]: 95.5 °C
- temperature from which weight decreased rapidly (decomposition) [3, 13]: 226.5 °C
- temperature from which weight started to decrease slowly (release of ammonia gas) [3, 13]: 147 °C
- slow weight decrease ([3]; starting at 95.5° C.): 1.2%

SMILES: CP(=O)(O)CCC(N)C(=O)O.N (stereo not drawn) [Crystal form in CN113831364A, reference compound]
- Start of heat absorption [1]: 104° ° C.
- Peak [1]: 115° ° C.
